The target in this assay is GTPase KRas (Homo sapiens, UniProt P01116). Nature of the assay: Antiproliferative activity against human COLO 320DM cells harboring wild type KRAS assessed as reduction in cell viability incubated for 24 hrs in presence of MVA.
Sequence of GTPase KRas (P01116 whole entry): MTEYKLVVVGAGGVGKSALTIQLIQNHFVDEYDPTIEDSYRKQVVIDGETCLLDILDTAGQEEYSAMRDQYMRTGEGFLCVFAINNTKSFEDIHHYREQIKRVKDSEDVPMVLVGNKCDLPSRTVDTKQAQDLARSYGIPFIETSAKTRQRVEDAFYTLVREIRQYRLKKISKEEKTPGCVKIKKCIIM

In the case of `CCCC[C@@H](C)C=C(C)C=C(C)C(=O)NC1=C[C@@](O)(C=CC=CC=CC(=O)NC2C(=O)CCC2=O)[C@@H]2O[C@@H]2C1=O` [(R)-2,4,6-Trimethyl-deca-2,4-dienoic acid {(1S,5S,6R)-5-hydroxy-5-[(1E,3E,5E)-6-(2-hydroxy-5-oxo-cyclopent-1-enylcarbamoyl)-hexa-1,3,5-trienyl]-2-oxo-7-oxa-bicyclo[4.1.0]hept-3-en-3-yl}-amide], the IC50 (usually the concentration at which inhibition is half-maximal) is 3.58 µM.

For the origin of these results see BindingDB's records for PubMed 33228976 (Massachusetts College of Pharmacy and Health Sciences …, 2021).
